For orientation: Ki means a measure of affinity in units of concentration, obtained from inhibition or displacement.

For one assay, the target named is T1, 11β-hsd-1 enzyme (Homo sapiens, UniProt P28845). Nature of the assay: biochemical.
T1 sequence (P28845 whole entry, species assumed): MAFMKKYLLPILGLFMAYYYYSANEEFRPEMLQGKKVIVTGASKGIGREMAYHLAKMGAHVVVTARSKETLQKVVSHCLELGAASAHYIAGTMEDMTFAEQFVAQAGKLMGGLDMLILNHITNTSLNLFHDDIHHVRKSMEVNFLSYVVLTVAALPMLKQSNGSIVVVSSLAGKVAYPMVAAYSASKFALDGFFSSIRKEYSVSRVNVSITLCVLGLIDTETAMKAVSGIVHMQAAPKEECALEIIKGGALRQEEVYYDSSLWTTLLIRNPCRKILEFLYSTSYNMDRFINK
Conditions: not given
On the procedure: The 11β-hsd-1 assay was performed in a 100 mM Triethanolamine buffer pH 8.0, containing 200 mM NaCl, 0.02% n-dodecyl β-D-maltoside, 5% glycerol, 5 mM β-mercaptoethanol. A typical reaction for the determination of Kiapp values was carried at R.T. in a Corning® u-bottom 96-well plate and is described as follows: 11β-hsd-1 enzyme (5 nM, final concentration) was pre-incubated in the presence of the inhibitor and NADPH (500 μM, final concentration) for at least 30 minutes in the assay buffer. When pre-incubation was completed, the reaction was initiated by adding the regenerating system (2 mM Glucose-6-Phosphate, 1U/mL Glucose-6-Phosphate dehydrogenase, and 6 mM MgCl2, all the concentration reported are final in the assay buffer), and 3H-cortisone (200 nM, final concentration). After 60 minutes, 60 μL of the assay mixture was transferred to a second 96-well plate and mixed with an equal volume of dimethylsulfoxide to stop the reaction. A 15 μL aliquot from the reaction mixture was loaded into a C-18 column (Polaris C18-A, 50×4.6 mm, 5 μ, 180 Angstrom from Varian) connected to an automated High-throughput Liquid Chromatography instrument developed by Cohesive Technologies Inc, of Franklin, Mass. USA, with a β-RAM model 3 Radio-HPLC detector from IN/US, of Tampa, Fla. USA. The substrate and product peaks were separated by using an isocratic mixture of 43:57 methanol to water (v/v) at a flow rate of 1.0 mL/min.
The initial reaction velocities were measured by stopping the reaction at 60 min and by measuring the area of product formation in the absence and the presence of various concentrations of inhibitors. The Kiapp values were determined using the equation for tight-binding inhibitor developed by Morrison, J. F. (Morrison J. F. Biochim BiophysActa. 1969; 185: 269-86).
The radiolabeled [1,2-3H]-cortisone is commercially available from American Radiolabeled Chemicals Inc of St. Louis, Mo. USA. NADPH, Glucose-6-Phosphate, and Glucose-6-Phosphate dehydrogenase were purchased from Sigma®.
(Morrison J. F. Biochim Biophys Acta. 1969; 185: 269-86).
`CCc1cccc(NS(=O)(=O)N2CCN(c3ncccc3C(F)(F)F)CC2)n1` [Example 198, N-(6-ethylpyridin-2-yl)-4-[3-(trifluoromethyl)pyridin-2-yl]piperazine-1-sulfonamide]: affinity was put at a Ki of 71 nM. Same read-out and setting: to `N#Cc1ccc(N2CCCN(S(=O)(=O)Nc3ccc4ccccc4n3)CC2)nc1` [Example 45] belongs 53 nM; to `CCc1cccc(NS(=O)(=O)N2CCN(c3ccccn3)CC2)n1` [Example 194, N-(6-ethylpyridin-2-yl)-4-pyridin-2-ylpiperazine-1-sulfonamide], 37 nM. Turning to `CCc1cccc(NS(=O)(=O)N2CCCN(Cc3ccc(F)cc3)CC2)n1` [Example 200, N-(6-ethylpyridin-2-yl)-4-(4-fluorobenzyl)-14-diazepane-1-sulfonamide], the Ki amounted to 20 nM.

Consider `Cc1cccc(NS(=O)(=O)N2CCN(c3ccc(C(F)(F)F)cn3)CC2)n1` [Example 8], for which the affinity corresponds to a Ki of 2.1 nM.

As to `Cc1cccc(NS(=O)(=O)N2CC=C(c3ccc(C#N)cc3)CC2)n1` [Example 26, 4-(4-cyanophenyl)-N-(6-methylpyridin-2-yl)-3,6-dihydro-pyridine-1(2H)-sulfonamide], the Ki was 1.6 nM.

For a further assay, the target named is T1, 11β-hsd-1 enzyme. Nature of the assay: biochemical. The note with it: Table 2; inhibitor 0.1 mM as printed; read-out: % Inh @ 0.1 mM. On the procedure: Percentage of inhibition was determined in a 100 mM Triethanolamine buffer, pH 8.0, 200 mM NaCl, 0.02% n-dodecyl β-D-maltoside and 5 mM β-ME. A typical reaction was carried on a Corning® u-bottom 96-well plate and is described as follows: 11β-hsd-1 enzyme (5 nM, final concentration) was pre-incubated in the presence of the inhibitor and NADPH (500 μM, final concentration) for at least 30 minutes
in the assay buffer. When pre-incubation was completed, the reaction was initiated by adding the regenerating system (2 mM Glucose-6-Phosphate, 1U/mL Glucose-6-Phosphate dehydrogenase, and 6 mM MgCl2, all the concentration reported are final in the assay buffer), and 3H-cortisone (200 nM, final concentration). After 60 minutes, 60 μL of the assay mixture was transferred to a second 96-well plate and mixed with an equal volume of dimethylsulfoxide to stop the reaction. A 15 μL aliquot from the reaction mixture was loaded into a C-18 column (Polaris C18-A, 50×4.6 mm, 5 μ, 180 Angstrom from Varian) connected to an automated High-throughput Liquid Chromatography instrument developed by Cohesive Technologies Inc of Franklin, Mass., with a […] model 3 Radio-HPLC detector from IN/US of Tampa, Fla. The substrate and product peaks were separated by using an isocratic mixture of 43:57 methanol to water (v/v) at a flow rate of 1.0 mL/min.
Percent Inhibition was calculated based on the following equation: (1-(3H-Cortisol peak area in the […] of inhibitor)×100).
For `CCc1cccc(NS(=O)(=O)N2CCN(c3ccccn3)CC2)n1` [Example 194, N-(6-ethylpyridin-2-yl)-4-pyridin-2-ylpiperazine-1-sulfonamide], the inhibition at 100 µM stood at 81.4%.

Staying with this assay, now noted: read-out: % Inh @ 0.1 μM.
In the case of `N#Cc1ccc(N2CCCN(S(=O)(=O)Nc3ccc4ccccc4n3)CC2)nc1` [Example 45], the inhibition at 0.1 µM stood at 73%. The same measure, in the same setting: then `Cc1cccc(NS(=O)(=O)N2CCN(c3ccc(C(F)(F)F)cn3)CC2)n1` [Example 8], with 96.4%; and `Cc1cccc(NS(=O)(=O)N2CC=C(c3ccc(C#N)cc3)CC2)n1` [Example 26, 4-(4-cyanophenyl)-N-(6-methylpyridin-2-yl)-3,6-dihydro-pyridine-1(2H)-sulfonamide], with 100%; and `Cc1cc(N)nc(NS(=O)(=O)N2CCn3cc(C(F)(F)F)nc3C2)c1` [Example 51], with 38%. On to `Cc1ccnc(N2CCN(S(=O)(=O)Nc3cccc(C)n3)CC2)c1` [Example 6], for which the inhibition at 0.1 µM was 56.2%.

Regarding `Cc1cc(N)cc(NS(=O)(=O)N2CCC(C(F)(F)F)CC2)c1` [Example 56], the inhibition at 0.1 µM was 100%.

As for `C[C@H]1CN(S(=O)(=O)Nc2cccc(CO)n2)CCN1c1ccc(C#N)cn1` [Example 58, (3S)-4-(5-cyanopyridin-2-yl)-N-[6-(hydroxymethyl)pyridin-2-yl]-3-methylpiperazine-1-sulfonamide], the inhibition at 0.1 µM came out at 100%.

In the case of `O=S(=O)(Nc1ccc2ncccc2n1)N1CCC(c2ccc(C(F)(F)F)cn2)CC1` [Example 36, N-1,5-naphthyridin-2-yl-4-[5-(trifluoromethyl)pyridin-2-yl]piperidine-1-sulfonamide], the inhibition at 0.1 µM came to 89%. Regarding `Cc1cccc(NS(=O)(=O)N2CCN(c3ncccc3C(F)(F)F)CC2)n1` [Example 5], the inhibition at 0.1 µM stood at 44.6%. Turning to `Cc1cc(N)cc(NS(=O)(=O)N2CCC(Oc3cccc(F)c3)CC2)c1` [Example 54], the inhibition at 0.1 µM came to 100%. For `Cc1cc(N)nc(NS(=O)(=O)N2CCn3c(nc4cc(Cl)ccc43)C2)c1` [Example 48], the inhibition at 0.1 µM worked out at 100%. As to `Cc1cc(N)cc(NS(=O)(=O)N2CCC(Oc3ccccc3F)CC2)c1` [Example 53], the inhibition at 0.1 µM is 100%. Same read-out and setting: to `Cc1cccc(NS(=O)(=O)N2C[C@H]3C[C@@H]2CN3c2ccc(C#N)cn2)n1` [Example 24] belongs 0%.

`Cc1cccc(NS(=O)(=O)N2CCN(Cc3ccccc3)CC2)n1` [Example 7]: the inhibition at 0.1 µM was determined as 17.7%.

With `Cc1cccc(NS(=O)(=O)N2CCN(c3ncccc3C)CC2)n1` [Example 4], the inhibition at 0.1 µM was determined as 26.6%. On the same count and under the same terms, then `Cc1cc(N)nc(NS(=O)(=O)N2CCn3c(nc4cc(C(F)(F)F)ccc43)C2)c1` [Example 47], with 100%; and `Cc1cc(N)nc(NS(=O)(=O)N2CCn3c(-c4ccccc4)cnc3C2)c1` [Example 52], with 100%.

Staying with this assay, now noted: read-out: % Inh @ 0.1 mM.
As to `CCc1cccc(NS(=O)(=O)N2CCN(c3ncccc3C(F)(F)F)CC2)n1` [Example 198, N-(6-ethylpyridin-2-yl)-4-[3-(trifluoromethyl)pyridin-2-yl]piperazine-1-sulfonamide], the inhibition amounted to 69.1%. Turning to `CCc1cccc(NS(=O)(=O)N2CCCN(Cc3ccc(F)cc3)CC2)n1` [Example 200, N-(6-ethylpyridin-2-yl)-4-(4-fluorobenzyl)-14-diazepane-1-sulfonamide], the inhibition came out at 96.8%. In the case of `CCc1cccc(NS(=O)(=O)N2CCN(Cc3c(F)cccc3F)CC(COC)C2)n1` (centres unmarked) [Example 141, 4-(26-difluorobenzyl)-N-(6-ethylpyridin-2-yl)-6-(methoxymethyl)-14-diazepane-1-sulfonamide], the inhibition turned out to be 13.8%. As to `Cc1ccc2oc(N3CCN(S(=O)(=O)Nc4ccc5ccccc5n4)CC3)nc2n1` [Example 179, 4-(5-methyl[13]oxazolo[45-b]pyridin-2-yl)-N-quinolin-2-ylpiperazine-1-sulfonamide], the inhibition was 0%. As to `CCc1cccc(NS(=O)(=O)N2CCN(c3ccc(C(=O)N4CCOCC4)cn3)CC2)n1` [Example 147, N-(6-ethylpyridin-2-yl)-4-[5-(morpholin-4-ylcarbonyl)pyridin-2-yl]piperazine-1-sulfonamide], the inhibition was 27.2%. Regarding `CCc1cccc(NS(=O)(=O)N2CCC(COCc3ccccc3F)CC2)n1` [Example 92, N-(6-ethylpyridin-2-yl)-4-{[(2-fluorobenzyl)oxy]meth-yl}piperidine-1-sulfonamide], the inhibition came out at 67.5%.

Consider `CCc1cccc(NS(=O)(=O)N2CCCN(C(=O)OCc3ccccc3)CC2)n1` [Example 182, benzyl 4-{[(6-ethylpyridin-2-yl)amino]sulfonyl}-14-diazepane-1-carboxylate], for which the inhibition was determined as 61%.

Regarding `O=S(=O)(Nc1ccc2ccccc2n1)N1CCOc2ccccc2C1` [Example 174, N-quinolin-2-yl-23-dihydro-14-benzoxazepine-4(5H)-sulfonamide], the inhibition came out at 57.9%. Still for that read-out and setting: then `CCc1cccc(NS(=O)(=O)N2CCC(c3ccc(C(=O)N4CCOCC4)cc3)CC2)n1` [Example 77, N-(6-ethylpyridin-2-yl)-4-[4-(morpholin-4-ylcarbonyl)phenyl]piperi-din-1-sulfonamide], with 48.4%; and `N#Cc1cccnc1N1CCCN(S(=O)(=O)Nc2ccc3ccccc3n2)CC1` [Example 168, 4-(3-cyanopyridin-2-yl)-N-quinolin-2-yl-14-diazepane-1-sulfonamide], with 56.7%; and `CCc1cccc(NS(=O)(=O)N2CCCC(c3nc(C)no3)C2)n1` (centres unmarked) [Example 72, N-(6-ethylpyridin-2-yl)-3-(2-methyl-124-oxadiazol-5-yl)piperidine-1-sulfonamide], with 56.7%. Regarding `CCc1cccc(NS(=O)(=O)N2CCN(c3ccc(C)cc3)C(=O)C2)n1` [Example 189, N-(6-ethylpyridin-2-yl)-4-(4-methylphenyl)-3-oxopiperazine-1-sulfonamide], the inhibition was found to be 24.9%.

Regarding `CCc1cccc(NS(=O)(=O)N2CCC(c3cccc(C(=O)N(CC)CC)c3)CC2)n1` [Example 79, NN-diethy-3-(1-{[(6-ethylpyridin-2-yl)amino]sulfonyl}piperidin-4-yl)benzamide], the inhibition turned out to be 51.1%.

Regarding `CCc1cccc(NS(=O)(=O)N2CCN(c3nc(C)cc(CC(C)C)n3)CC2)n1` [Example 143, N-(6-ethylpyridin-2-yl)-4-(4-isobutyl-6-methylpyrimidin-2-yl)piperazine-1-sulfonamide], the inhibition came to 36.7%.

On to `Cc1cccc(NS(=O)(=O)N2CCN(c3ccccn3)CC2)n1` [Example 126, N-(6-methylpyridin-2-yl)-4-pyridin-2-ylpiperazine-1-sulfonamide], for which the inhibition came to 57.8%. For the compound `CCc1cccc(NS(=O)(=O)N2CCC(c3cccc(C(N)=O)c3)CC2)n1` [Example 75, 3-(1-{[(6-ethylpyridin-2-yl)amino]sulfonyl}piperidin-4-yl)benzamide], the inhibition stood at 45.6%. Still for that read-out and setting: then `CCc1cccc(NS(=O)(=O)N2CCC(n3c(C)nnc3CC)CC2)n1` [Example 107, 4-(3-ethyl-5-methyl-4H-124-triazol-4-yl)-N-(6-ethyl-pyridin-2-yl)piperidine-1-sulfonamide], with 0%.

For the origin of these results see patent publication US20070027118A1 (priority 2005, published 2007).
